The source of these data is DBAASP.

In brackets after ≈: the same amount, converted by molar mass. Bounds are passed on as bounds.

Test in all cases: ≥ marks a high value that may be exact or a test limit, other limits are often not marked, values filed in µg/mL are converted to µM
For test [1], the system named is Staphylococcus aureus VRSA1.
Test [2] has as its system Escherichia coli ATCC 25922.
Test [3] has as its system Enterococcus faecium BCRC 15B0132.
Test [4] has as its system Staphylococcus aureus VISA1.
The subject of test [5] is Staphylococcus aureus VISA3.
Test [6] relates to Staphylococcus aureus VRSA2.
The subject of test [7] is Bacillus thuringiensis AB92037.
Test [8] has as its system Staphylococcus epidermidis AB208187.
For test [9], the system named is Staphylococcus aureus P1389.
Test [10] has as its system Pseudomonas aeruginosa ATCC 9027.
For test [11], the system named is Escherichia coli AB94012.
In test [12] the test system is Staphylococcus aureus AB208193.
For test [13], the system named is Staphylococcus epidermidis AB208188.
Test [14] relates to Staphylococcus aureus ATCC 6538.
For test [15], the system named is Staphylococcus aureus P1381.
Test [16] relates to Staphylococcus aureus ATCC 25923.
Test [17] has as its system Staphylococcus aureus P1374.
Test [18] concerns Bacillus subtilis AB91021.
Test [19] has as its system Micrococcus luteus AB93113.
The subject of test [20] is Bacillus subtilis DSM 347.
The test system of test [21] is Staphylococcus xylosus DSM 20287.
Test [22] has as its system Franconibacter helveticus DSM 18390.
For test [23], the system named is Escherichia coli DSM 1116.
Test [24] relates to Escherichia coli 078.
Test [25] concerns Escherichia coli.
The subject of test [26] is Pseudomonas aeruginosa 25349.
Test [27] deals with Salmonella enterica subsp. enterica serovar Typhimurium ATCC 14028.
Test [28] deals with Escherichia coli K88.
Test [29] relates to Escherichia coli UB1005.
The test system of test [30] is Salmonella enterica subsp. enterica serovar Typhimurium C77-31.
The subject of test [31] is Escherichia coli K99.
The test system of test [32] is Bacillus subtilis CMCC 63501.
Test [33] relates to Acinetobacter baumannii.
The test system of test [34] is Staphylococcus aureus ATCC 29213.
Test [35] deals with Salmonella enterica subsp. enterica serovar Pullorum C79-13.
The subject of test [36] is Enterococcus faecalis ATCC 29212.
Test [37] deals with Staphylococcus epidermidis ATCC 12228.
For test [38], the system named is Staphylococcus aureus.
Test [39] has as its system Candida albicans ATCC 24433.
Test [40] deals with Candida parapsilosis ATCC 22019.
The test system of test [41] is Trichophyton rubrum ATCC 28189.

`CC(=O)N[C@@H](C)C(=O)N[C@@H](CCCCN)C(=O)N[C@@H](CCCN=C(N)N)C(=O)N[C@@H](Cc1ccccc1)C(=O)N[C@@H](Cc1ccccc1)C(=O)NCC(=O)N[C@@H](Cc1ccc(O)cc1)C(=O)N[C@@H](CCCCN)C(=O)N[C@@H](CCCN=C(N)N)C(=O)N[C@@H](CCCCN)C(=O)N[C@@H](Cc1ccccc1)C(=O)N[C@@H](Cc1ccccc1)C(N)=O` [AKRFFGYKRKFF]: the MIC (in general, the lowest concentration that inhibits growth of the organism) in test [1] was not below 40.1 µM; in test [2] it was 40.1 µM (≈ 65.6 µg/mL); in test [3], not below 40.1 µM; in test [4], not below 40.1 µM; in test [5], not below 40.1 µM; in test [6], not below 40.1 µM.
`CC[C@H](C)[C@H](NC(=O)[C@H](CCCCN)NC(=O)[C@@H](NC(=O)[C@H](C)NC(=O)[C@H](CC(C)C)NC(=O)[C@H](CCCCN)NC(=O)[C@H](Cc1ccccc1)NC(=O)[C@H](CC(C)C)NC(=O)[C@H](Cc1cnc[nH]1)NC(=O)CNC(=O)[C@H](Cc1ccccc1)NC(=O)[C@@H](N)Cc1ccccc1)[C@@H](C)O)C(=O)N[C@H](C(=O)N1CCC[C@H]1C(=O)N[C@@H](CO)C(=O)N[C@@H](CC(C)C)C(=O)N[C@@H](Cc1ccccc1)C(=O)N[C@@H](CCCN=C(N)N)C(=O)O)[C@@H](C)CC` [FFGHLFKLATKIIPSLFR]: the minimum inhibitory concentration (MIC) in [7] amounted to 2.9 µM (≈ 6.19 µg/mL); in test [2], 5.9 µM (≈ 12.6 µg/mL); in [8] it was 2.9 µM (≈ 6.19 µg/mL); in test [9], 2.9 µM (≈ 6.19 µg/mL); in test [10], 5.9 µM (≈ 12.6 µg/mL); in test [11], 11.7 µM (≈ 25 µg/mL). In addition, the MIC worked out at 2.9 µM (≈ 6.19 µg/mL) in test [12]; 2.9 µM (≈ 6.19 µg/mL) in test [13]; 1.5 µM (≈ 3.2 µg/mL) in test [14]; 1.5 µM (≈ 3.2 µg/mL) in test [15]; 2.9 µM (≈ 6.19 µg/mL) in test [16]; 2.9 µM (≈ 6.19 µg/mL) in test [17]. For the same compound, the MIC came out at 2.9 µM (≈ 6.19 µg/mL) in test [18] and 23.4 µM (≈ 50 µg/mL) in [19].
On to `CC[C@H](C)[C@H](N)C(=O)N[C@@H](C)C(=O)N[C@@H](CCCCN)C(=O)N[C@H](C(=O)N[C@@H](C)C(=O)NCC(=O)N[C@@H](CCCCN)C(=O)N[C@H](C(=O)N[C@@H](C)C(=O)N[C@@H](CCCCN)C(=O)N[C@H](C(=O)N[C@@H](C)C(=O)NCC(=O)N[C@@H](CCCCN)C(=O)N[C@H](C(=O)N[C@@H](C)C(=O)N[C@@H](CCCCN)C(=O)N[C@H](C(=O)N[C@@H](C)C(=O)NCC(=O)N[C@@H](CCCCN)C(=O)N[C@H](C(=O)N[C@@H](C)C(=O)N[C@@H](CCCCN)C(N)=O)[C@@H](C)CC)[C@@H](C)CC)[C@@H](C)CC)[C@@H](C)CC)[C@@H](C)CC)[C@@H](C)CC` [IAKIAGKIAKIAGKIAKIAGKIAK], for which the MIC in test [20] was found to be 0.842 µM (≈ 2 µg/mL); in [21], 0.842 µM (≈ 2 µg/mL); in test [22], 1.19 µM (≈ 2.83 µg/mL); in test [23] it was 1.68 µM (≈ 4 µg/mL).
For `CC[C@H](C)[C@H](NC(=O)[C@H](Cc1c[nH]c2ccccc12)NC(=O)[C@H](CCCCN)NC(=O)[C@H](CC(C)C)NC(=O)[C@@H](NC(=O)[C@H](CCCCN)NC(=O)CNC(=O)[C@@H](NC(=O)[C@H](CCCCN)NC(=O)[C@H](Cc1c[nH]c2ccccc12)NC(=O)[C@H](CC(C)C)NC(=O)[C@@H](N)CCCN=C(N)N)[C@@H](C)CC)C(C)C)C(N)=O` [RLWKIGKVLKWI], the MIC amounted to 2 µM (≈ 3.08 µg/mL) in test [24]; 2 µM (≈ 3.08 µg/mL) in test [25]; 2 µM (≈ 3.08 µg/mL) in [2]; 4 µM (≈ 6.16 µg/mL) in test [26]; 2 µM (≈ 3.08 µg/mL) in test [27]; 1 µM (≈ 1.54 µg/mL) in [28]. The MIC is 1 µM (≈ 1.54 µg/mL) in test [29]; 4 µM (≈ 6.16 µg/mL) in [30]; 2 µM (≈ 3.08 µg/mL) in [31]; 1 µM (≈ 1.54 µg/mL) in [32]; 2 µM (≈ 3.08 µg/mL) in test [33]; 4 µM (≈ 6.16 µg/mL) in test [34]. For the same compound, the MIC amounted to 1 µM (≈ 1.54 µg/mL) in test [35]; 4 µM (≈ 6.16 µg/mL) in test [36]; 4 µM (≈ 6.16 µg/mL) in test [37]; 2 µM (≈ 3.08 µg/mL) in test [16]; 2 µM (≈ 3.08 µg/mL) in [38].
Turning to `CC[C@H](C)[C@H](NC(=O)[C@H](CC(C)C)NC(=O)[C@H](CCC(=O)O)NC(=O)[C@H](CO)NC(=O)[C@H](CCCN=C(N)N)NC(=O)[C@@H](N)CO)C(=O)N[C@H](C(=O)N[C@@H](CCCN=C(N)N)C(=O)N[C@@H](CCC(N)=O)C(=O)N[C@@H](CCCN=C(N)N)C(=O)N[C@@H](CC(C)C)C(=O)N[C@@H](Cc1ccccc1)C(N)=O)C(C)C` [SRSELIVRQRLF], the MIC in test [39] was not below 266 µM; in [25], more than 266 µM; in test [40] it was not below 266 µM; in [41] it was not below 266 µM; in [38], more than 266 µM.
